Measured values published in patent US10336691B2, “Pesticidally active oxime and hydrazone derivatives” (Syngenta Participations AG, priority 2015, dated 2019).
Where two headings read alike, the source gives them in different places.

Assays:
Type in all cases: in vivo
Spodoptera littoralis = Spodoptera littoralis (Egyptian cotton leaf worm) cotton leaf disc spray test, L1 larvae; details: foliar, 72 h, read-out: control (at least one of mortality, anti-feedant effect, and growth inhibition)
Experimental: Spodoptera littoralis (Egyptian Cotton Leaf Worm)
Cotton leaf discs were placed on agar in 24-well microtiter plates and sprayed with aqueous test solutions prepared from 10,000 ppm DMSO stock solutions. After drying, the leaf discs were infested with five L1 larvae. The samples were assessed for mortality, anti-feedant effect, and growth inhibition in comparison to untreated samples 3 days after infestation. Control of Spodoptera littoralis by a test sample is when at least one of mortality, anti-feedant effect, and growth inhibition is higher than the untreated sample.

Plutella xylostella = Plutella xylostella (diamond back moth) artificial diet test, L2 larvae; details: 120 h, read-out: effect in at least one of the two categories (mortality or growth inhibition); for percent effect (mortality or growth inhibition) at 200 ppm: application rate of 200 ppm, 5 days after infestation, in comparison to untreated samples
Experimental: Plutella xylostella (Diamond Back Moth)
(§1) 24-well microtiter plates with artificial diet were treated with aqueous test solutions prepared from 10,000 ppm DMSO stock solutions by pipetting. After drying, the plates were infested with L2 larvae (10 to 15 per well). The samples were assessed for mortality and growth inhibition in comparison to untreated samples 5 days after infestation.

Diabrotica balteata = Diabrotica balteata (corn root worm) maize sprout spray test, L2 larvae; details: 96 h, read-out: effect in at least one of the two categories (mortality or growth inhibition); for percent effect (mortality or growth inhibition) at 200 ppm: application rate of 200 ppm, 4 days after infestation, in comparison to untreated samples
Experimental: Diabrotica balteata (Corn Root Worm)
as §1, with “Maize sprouts, placed on an agar layer in 24-well” for “24-well”, “plates” for “plates with artificial diet”, “spraying.” for “pipetting.”, “(6” for “(10”, “10” for “15”, “4” for “5”

[1] = application rate of 200 ppm, 3 days after infestation, in comparison to untreated samples

| SMILES | mortality at 200 ppm (Spodoptera littoralis; [1]) [%] | percent effect (mortality or growth inhibition) at 200 ppm (Plutella xylostella) [%] | percent effect (mortality or growth inhibition) at 200 ppm (Diabrotica balteata) [%] | other results |
| --- | --- | --- | --- | --- |
| C/C(=N\Nc1ccc(/C=N/NC(=S)Nc2c(C)cccc2C)cc1)c1ccc(C(F)(F)F)cc1 [Compound 22, 1-(2,6-dimethylphenyl)-3-[(E)-[4-[(2E)-2-[1-[4-(trifluoromethyl)phenyl]ethylidene] hydrazino]phenyl]methyleneamino] thiourea] | ≥ 80 | ≥ 80 | ≥ 80 | – |
| CC/C(=N\Nc1ccc(/C=N/NC(=S)Nc2c(C)cccc2C)cc1)c1ccc(C(F)(F)F)cc1 [Compound 28, 1-(2,6-dimethylphenyl)-3-[(E)-[4-[(2E)-2-[1-[4-(trifluoromethyl)phenyl]propylidene] hydrazino]phenyl]methyleneamino] thiourea] | ≥ 80 | ≥ 80 | ≥ 80 | – |
| CC/C(=N\Nc1ccc(/C=N/NC(=O)Nc2c(C)cccc2C)cc1)c1ccc(C(F)(F)F)cc1 [Compound 27, 1-(2,6-dimethylphenyl)-3-[(E)-[4-[(2E)-2-[1-[4-(trifluoromethyl)phenyl]propylidene] hydrazino]phenyl]methyleneamino] urea] | ≥ 80 | ≥ 80 | ≥ 80 | – |
| C/C(=N\Oc1ccc(/C=N/NC(=O)Nc2c(C)cccc2C)cc1)c1ccc(OC(F)(F)F)cc1 [Compound 7, 1-(2,6-dimethylphenyl)-3-[[4-[1-[4-(trifluoromethoxy)phenyl]ethylidene-amino]oxyphenyl]methylene-amino]urea] | ≥ 80 | ≥ 80 | ≥ 80 | – |
| C/C(=N\Nc1ccc(/C=N/NC(=O)Nc2c(C)cccc2C)cc1)c1ccc(OC(F)F)cc1 [Compound 29, 1-[[4-[2-[1-[4-(difluoromethoxy)phenyl]ethylidene] hydrazino]phenyl]methyleneamino]-3-(2,6-dimethylphenyl)urea] | ≥ 80 | ≥ 80 | – | – |
| C/C(=N\Oc1ccc(/C=N/NC(=O)Nc2ccccc2C(C)C)cc1)c1ccc(OC(F)(F)F)cc1 [Compound 6, 1-(2-isopropylphenyl)-3-[[4-[1-[4-(trifluoromethoxy)phenyl]ethylidene-amino]oxyphenyl]methylene-amino]urea] | – | ≥ 80 | ≥ 80 | – |
| C/C(=N\Nc1ccc(/C=N/NC(=O)Nc2c(C)cccc2C)cc1)c1ccc(C(F)(F)F)cc1 [Compound 21, 1-(2,6-dimethylphenyl)-3-[(E)-[4-[(2E)-2-[1-[4-(trifluoromethyl)phenyl]ethylidene] hydrazino]phenyl]methyleneamino] urea] | ≥ 80 | ≥ 80 | ≥ 80 | – |
| Cc1cccc(C)c1NC(=O)N/N=C/c1ccc(O/N=C2\CCc3cc(OC(F)(F)F)ccc32)cc1 [Compound 1, 1-(2,6-dimethylphenyl)-3-[[4-[[5-(trifluoromethoxy)indan-1-ylidene]amino]oxyphenyl]methylene-amino]urea] | ≥ 80 | ≥ 80 | ≥ 80 | – |
| CC(C)c1ccccc1NC(=S)N/N=C/c1ccc(O/N=C2\CCc3cc(OC(F)(F)F)ccc32)cc1 [Compound 5, 1-(2-isopropylphenyl)-3-[[4-[[5-(trifluoromethoxy)indan-1-ylidene]amino]oxyphenyl]methylene-amino]thiourea] | ≥ 80 | ≥ 80 | ≥ 80 | – |
| C/C(=N\Nc1ccc(/C=N/NC(=S)Nc2c(C)cccc2C)cc1)c1cccc(OC(F)(F)F)c1 [Compound 16, 1-(2,6-dimethylphenyl)-3-[[4-[2-[1-[3-(trifluoromethoxy)phenyl]ethylidene] hydrazino]phenyl]methylene-amino]thiourea] | – | ≥ 80 | ≥ 80 | – |
| C/C(=N\Oc1ccc(/C=N/OC(=O)Nc2c(C)cccc2C)cc1)c1ccc(OC(F)(F)F)cc1 [Compound 2, [[4-[1-[4-(trifluoromethoxy)phenyl]ethylidene-amino]oxyphenyl]methyleneamino] N-(2,6-dimethylphenyl) carbamate] | – | – | – | mortality at 200 ppm (Spodoptera littoralis): ≥ 80%; percent control (mortality or growth inhibition) at 200 ppm (Plutella xylostella): ≥ 80%; percent control (mortality or growth inhibition) at 200 ppm (Diabrotica balteata): ≥ 80% |
| C/C(=N\Oc1ccc(/C=N/NC(=S)Nc2ccccc2C(C)C)cc1)c1ccc(OC(F)(F)F)cc1 [Compound 8, 1-(2-isopropylphenyl)-3-[[4-[1-[4-(trifluoromethoxy)phenyl]ethylidene-amino]oxyphenyl]methylene-amino]thiourea] | – | ≥ 80 | ≥ 80 | – |
| C/C(=N\Nc1ccc(/C=N/NC(=O)Nc2c(C)cccc2C)cc1)c1cccc(OC(F)(F)F)c1 [Compound 15, 1-(2,6-dimethylphenyl)-3-[[4-[2-[1-[3-(trifluoromethoxy)phenyl]ethylidene]hydrazino]phenyl]methylene-amino]urea] | – | ≥ 80 | – | – |
| C/C(=N\Nc1ccc(/C=N/NC(=S)Nc2ccccc2C(C)C)cc1)c1cccc(OC(F)(F)F)c1 [Compound 14, 1-(2-isopropylphenyl)-3-[[4-[2-[1-[3-(trifluoromethoxy)phenyl]ethylidene] hydrazino]phenyl]methyleneamino] thiourea] | – | ≥ 80 | ≥ 80 | – |
| Cc1cccc(C)c1NC(=S)N/N=C/c1ccc(O/N=C2\CCc3cc(OC(F)(F)F)ccc32)cc1 [Compound 9, 1-(2,6-dimethylphenyl)-3-[[4-[[5-(trifluoromethoxy)indan-1-ylidene]amino]oxyphenyl]methylene-amino]thiourea] | ≥ 80 | ≥ 80 | ≥ 80 | – |
| C/C(=N\Nc1ccc(/C=N/NC(=O)Nc2ccccc2C(C)C)cc1)c1ccc(C(F)(F)F)cc1 [Compound 19, 1-(2-isopropylphenyl)-3-[(E)-[4-[(2E)-2-[1-[4-(trifluoromethyl)phenyl]ethylidene] hydrazino]phenyl]methyleneamino] urea] | – | ≥ 80 | ≥ 80 | – |
| CC/C(=N\Nc1ccc(/C=N/NC(=O)Nc2ccccc2C(C)C)cc1)c1ccc(C(F)(F)F)cc1 [Compound 25, 1-(2-isopropylphenyl)-3-[(E)-[4-[(2E)-2-[1-[4-(trifluoromethyl)phenyl]propylidene] hydrazino]phenyl]methyleneamino] urea] | – | ≥ 80 | ≥ 80 | – |
| C/C(=N\Nc1ccc(/C=N/NC(=O)Nc2ccccc2C(C)C)cc1)c1cccc(OC(F)(F)F)c1 [Compound 13, 1-(2-isopropylphenyl)-3-[[4-[2-[1-[3-(trifluoromethoxy)phenyl]ethylidene] hydrazino]phenyl]methyleneamino] urea] | – | – | ≥ 80 | – |
| C/C(=N\Nc1ccc(/C=N/OC(=O)Nc2c(C)cccc2C)cc1)c1ccc(C(F)(F)F)cc1 [Compound 12, [[4-[2-[1-[4-(trifluoromethyl)phenyl]ethylidene] hydrazino]phenyl]methyleneamino] N-(2,6-dimethylphenyl)carbamate] | – | – | – | percent control (mortality or growth inhibition) at 200 ppm (Diabrotica balteata): ≥ 80% |
| FC(F)(F)Oc1ccc2c(c1)CC/C2=N\Oc1ccc(/C=N/NC(=S)Nc2ccccc2C(F)(F)F)cc1 [Compound 30, 1-[[4-[[5-(trifluoromethoxy)indan-1-ylidene]amino]oxyphenyl]methylene-amino]-3-[2-(trifluoromethyl)phenyl]thiourea] | – | – | ≥ 80 | – |
| C/C(=N\Nc1ccc(/C=N/NC(=S)Nc2ccccc2C(C)C)cc1)c1ccccc1OC(F)(F)F [Compound 23, 1-(2-isopropylphenyl)-3-[(E)-[4-[(2E)-2-[1-[2-(trifluoromethoxy)phenyl]ethylidene] hydrazino]phenyl]methylene-amino]thiourea] | – | ≥ 80 | – | – |
| C/C(=N\Oc1ccc(/C=N/NC(=S)Nc2ccccc2C(F)(F)F)cc1)c1ccc(OC(F)(F)F)cc1 [Compound 31, 1-[[4-[1-[4-(trifluoromethoxy)phenyl]ethylidene-amino]oxyphenyl]methylene-amino]-3-[2-(trifluoromethyl)phenyl]thiourea] | – | – | ≥ 80 | – |
| C/C(=N\Nc1ccc(/C=N/NC(=S)Nc2c(C)cccc2C)cc1)c1ccccc1OC(F)(F)F [Compound 18, 1-(2,6-dimethylphenyl)-3-[[4-[2-[1-[2-(trifluoromethoxy)phenyl]ethylidene] hydrazino]phenyl]methylene-amino]thiourea] | – | ≥ 80 | – | – |
